Experimental data from patent US6093714A, “Tricyclic benzazepine compounds” (priority 1995, dated 2000).
Structures can show the parent of a compound that is named as a salt. Where two headings read alike, the source gives them in different places.

Columns and labels:
[1] = test system: allergic foot-pad edema reaction; assay: Immediate and late phase allergic response inhibition test (allergic foot-pad edema reaction); format: in vivo, Wister male rats; details: Rattus norvegicus; for inhibition in vivo at 20 mg/kg: po, 20 mg/kg orally, 10 min before induction
Protocol: Immediate and late phase allergic response inhibition test
Wister male rats weighing of 200 g were provided. 1010 organisms of Bordetella pertussis and 1 mg of dinitrophenylated ovalbumin (hereinafter abbreviated to "DNP-OA") were intramuscularly administered into the foot pad of the limbs of the rats except for the right hind leg. Further, ten days after the administration, 5 pg/site DNP-OA was subcutaneously administered to the right hind leg to induce allergic foot-pad edema reaction. The inhibitory activity of the test compounds was determined in such a manner that the volume of edema 30 min after the induction of the allergic reaction was regarded as an immediate phase allergic response and the volume of edema 8 hr after the induction of the allergic reaction was regarded as a late phase allergic response. Each test compound was dissolved or suspended in a 0.25% Tween 80 solution, and the solution or suspension was orally administered at a dose of 20 mg/kg 10 min before the induction of the allergic reaction.
Only the 0.25% Tween 80 solution was administered to the control group of rats not treated with any test compound, and 100 mg/kg sodium cromoglicate was subcutaneously or orally administered to the positive control group of rats.
The percentage inhibition of the allergic foot-pad edema reaction was determined by the following equation.
Percentage inhibition of allergic foot-pad edema reaction=(A-B)/A×100
wherein A: average edema volume for the non-treated control group of rats; and
B: average edema volume for the group of rats with the test compound administered.

intraperitoneal cells = assay: Histamine release reaction inhibition test (rat intraperitoneal cells, DNP-As antigen); format: cell-based, Wistar male rat; details: 10^-5 to 10^-10 M test compound, DNP-As stimulated intraperitoneal cells, 10^5 cells/ml, read-out: IC50 (dose of the test compound required for inhibiting the histamine release reaction by 50%)
Protocol: Histamine release reaction inhibition test
(1) Preparation of antiserum
Rat anti-dinitrophenylated ascaris protein (hereinafter referred to as "DNP-As") serum was prepared according to the method established by Tada et al. (Tada, T. and Okumura, K., J. Immun. 106(4), 1971). Specifically, 1010 organisms of Bordetella pertussis and 1 mg of DNP-As were intramuscularly administered to the foot pad of the limbs of Brown norway male rats weighing 200 g, and, five days after the administration, 0.5 mg of DNP-As was intramuscularly administered to the back. Three days after that, blood was collected to prepare an antiserum. The titer of the antiserum was determined by using a 48-hr passive cutaneous anaphylaxis reaction using a rat and found to be 1:1000 to 1:2000.
(2) Induction of histamine release reaction and release reaction inhibitory activity
The above serum was diluted four times with physiological brine, and 1 ml of the diluted serum was intraperitoneally administered to a Wistar male rat. Two days after the administration, the abdominal cavity was washed with phosphate buffer, and intraperitoneal cells were collected. The cells were adjusted to 10^5 cells/ml and stimulated with 1 pg/ml DNP-As, and the amount of the histamine released on the supernatant was measured by the method established by Shore et al (Shore, P. A., Burkhalter, A. H. and Chon Jr. V. H. J. Pharm. Exp. Ther., 127 , 182-186 (1959)).
The amount of the released histamine treated with 10^-5 to 10^-10 M test compound was compared with that of non-treated group. The dose of the test compound required for inhibiting the histamine release reaction by 50% (IC50) was calculated based on the percentage inhibition. IC50 of sodium cromoglicate was used as a control.

[2] = cited from earlier work
[3] = 0.5 h, edema 30 min after induction, read-out: Inhibition (%) Immediate phase response
[4] = edema 8 hr after induction, read-out: Inhibition (%) Late phase response

SMILES	IC50 (intraperitoneal cells) [nM]	inhibition in vivo at 100 mg/kg ([1]; 0.5 h, oral administration, edema 30 min after induction, read-out: Inhibition (%) Immediate phase response) [%]	inhibition in vivo at 100 mg/kg ([1]; sc, 0.5 h, subcutaneous administration, edema 30 min after induction, read-out: Inhibition (%) Immediate phase response) [%]	inhibition in vivo at 100 mg/kg ([1]; sc, subcutaneous administration, edema 8 hr after induction, read-out: Inhibition (%) Late phase response) [%]	inhibition in vivo at 100 mg/kg ([1]; oral administration, edema 8 hr after induction, read-out: Inhibition (%) Late phase response) [%]	oral absorption [2]	inhibition in vivo at 20 mg/kg [1, 3] [%]	inhibition in vivo at 20 mg/kg [1, 4] [%]
O=C(O)c1cc(=O)c2c(OCC(O)COc3cccc4oc(C(=O)O)cc(=O)c34)cccc2o1 [Sodium cromoglicate, reference compound]	1800	16	75	53	20	poor oral absorption	–	–
COc1cc2c(=O)c3[nH]nnc3c(=O)[nH]c2c(OC)c1OC [Example 30, 6,7,8-Trimethoxy-4(5H),10-dioxo-1H-1,2,3-triazolo[4,5-c][1]benzazepine]	8.7	–	–	–	–	–	58	51
Cc1cc2[nH]c(=O)c3nn[nH]c3c(=O)c2cc1O [Example 28, 8-Hydroxy-7-methyl-4(5H),10-dioxo-1H-1,2,3-triazolo[4,5-c][1]benzazepine]	12	–	–	–	–	–	51	48
O=c1[nH]c2cc(OCCCN3CCOCC3)ccc2c(=O)c2[nH]nnc12 [Example 12, 7-(3-Morpholinopropoxy)-4(5H),10-dioxo-1H-1,2,3-triazolo[4,5-c][1]benzazepine trifluoroacetate]	3.6	–	–	–	–	–	46	42

More lines, main results first:

IC50 (intraperitoneal cells) [nM]	SMILES	inhibition in vivo at 100 mg/kg ([1]; 0.5 h, oral administration, edema 30 min after induction, read-out: Inhibition (%) Immediate phase response) [%]	inhibition in vivo at 100 mg/kg ([1]; sc, 0.5 h, subcutaneous administration, edema 30 min after induction, read-out: Inhibition (%) Immediate phase response) [%]	inhibition in vivo at 100 mg/kg ([1]; sc, subcutaneous administration, edema 8 hr after induction, read-out: Inhibition (%) Late phase response) [%]	inhibition in vivo at 100 mg/kg ([1]; oral administration, edema 8 hr after induction, read-out: Inhibition (%) Late phase response) [%]	oral absorption [2]	inhibition in vivo at 20 mg/kg [1, 3] [%]	inhibition in vivo at 20 mg/kg [1, 4] [%]
3.9	O=C(CCc1ccc2c(=O)c3[nH]nnc3c(=O)[nH]c2c1)Nc1ccncc1 [Example 9, 7-(2-(N-(4-Pyridylamino))carbamoyl)ethyl-4(5H),10-dioxo-1H-1,2,3-triazolo[4,5-c][1]benzazepine]	–	–	–	–	–	30	33
2.8	O=C(COc1ccc2c(=O)c3[nH]nnc3c(=O)[nH]c2c1)NCc1ccccn1 [Example 16, 4(5H ),10-Dioxo-7-(N-(2-pyridylmethyl)carbamoylmethyloxy)-1H-1,2,3-triazolo[4,5-c][1]benzazepine trifluoroacetate]	–	–	–	–	–	48	35
1.2	Cc1cccc(/C=C/c2ccc3c(=O)c4[nH]nnc4c(=O)[nH]c3c2)n1 [Example 32, (E)-7-(2-(6-Methyl-2-pyridyl)-(E)-ethenyl)-4(5H),10-dioxo-1H-1,2,3-triazolo[4,5-c][1]benzazepine trifluoroacetate]	–	–	–	–	–	55	43
2.9	O=C(CCc1ccc2c(=O)c3[nH]nnc3c(=O)[nH]c2c1)N(Cc1ccccn1)Cc1ccccn1 [Example 5, 4(5H ),10-Dioxo-7-(2-(N,N-bis(2-pyridylmethyl))carbamoyl)ethyl-1H-1,2,3-triazolo[4,5-c][1]benzazepine]	–	–	–	–	–	40	43
